Reference: paper PMC7751407, “Novel oxindole/benzofuran hybrids as potential dual CDK2/GSK-3β inhibitors targeting breast cancer: design, synthesis, biological evaluation, and in silico studies” (Journal of Enzyme Inhibition and Medicinal Chemistry, 2020)

Key:
[1] = biological target: T1, GSK-3β (Homo sapiens, UniProt P49841); experiment: GSK-3β kinase inhibition (GSK3β Assay Kit, BPS Biosciences); format: biochemical; conditions: mean ± SD of three separate experiments
T1 construct: purchased BPS Biosciences, San Diego, CA, USA 79700
T1 sequence (P49841 whole entry): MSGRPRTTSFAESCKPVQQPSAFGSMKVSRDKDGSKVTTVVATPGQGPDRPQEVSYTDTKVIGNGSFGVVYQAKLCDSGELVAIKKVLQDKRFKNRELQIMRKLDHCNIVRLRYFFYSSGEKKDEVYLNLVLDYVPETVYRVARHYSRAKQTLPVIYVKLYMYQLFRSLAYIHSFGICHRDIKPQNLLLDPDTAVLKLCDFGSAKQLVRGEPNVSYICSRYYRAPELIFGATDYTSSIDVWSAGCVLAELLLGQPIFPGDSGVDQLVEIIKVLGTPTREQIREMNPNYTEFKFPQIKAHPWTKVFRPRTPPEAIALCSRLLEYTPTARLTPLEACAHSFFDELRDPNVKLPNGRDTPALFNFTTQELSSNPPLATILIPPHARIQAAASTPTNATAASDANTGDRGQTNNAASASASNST
Description: (§1) 2. CDK2/GSK-3β Kinase Inhibitory Activities
(§2) The CDK2 and GSK-3β inhibitory activities were determined for hybrids 5a-g using the CDK2
(§3) Kinase Enzyme System (catalog No. V2971) (Promega, Milan, Italy), and GSK3β Assay Kit

[2] = system: MCF-7 cells; experiment: Cell cycle analysis by flow cytometry (PI stain) in MCF-7 cells; format: cell-based, human; conditions: 24 h, at IC50 concentration
Description: Compounds showing promising antiproliferative as well as kinase inhibitory activity 5d, 5e and 5f were further investigated for their influence on the cell cycle progression by flow cytometry analysis using propidium iodide (PI) stain. Cell cycle parameters were compared for the breast cancer MCF-7 cells with DMSO as control and after treatment with the compounds of interest and incubation for 24 h, and the results were presented in Figure 5 and Table 3. […]
concentration), and then cells were washed twice with ice-cold phosphate buffered saline (PBS).
Subsequently, the treated cells were collected by centrifugation, fixed in ice-cold 70% (v/v) ethanol, washed with PBS, re-suspended with 100 μg/mL RNase, stained with 40 μg/mL PI, and analyzed by flow cytometry using FACS Calibur (Becton Dickinson, BD, Franklin Lakes, NJ,

[3] = biological target: T2, CDK2 (Homo sapiens, UniProt P24941); experiment: CDK2 kinase inhibition (CDK2 Kinase Enzyme System, Promega); format: biochemical; conditions: mean ± SD of three separate experiments
T2 construct: purchased Promega, Milan, Italy V2971
Description: as §1, §2, §3

[4] = system: T-47D; experiment: MTT anti-proliferative assay, T-47D breast cancer cells; format: cell-based; conditions: Homo sapiens, T47D, 48 h exposure, mean ± SD of three separate experiments
Description: (§4) 1. Anti-proliferative activity toward human breast cell lines
(§5) The two examined human breast cancer cell lines (T-47D and MCF-7) have been obtained from American Type Culture Collection (ATCC). Cells lines were maintained as monolayers in Dulbecco’s Modified Eagle’s Medium (DMEM) supplemented with 10% FBS, 2 mM L-glutamine, 100 U/ml penicillin and 100µg/ml streptomycin sulfate. Cells were sub-cultured with trypsine /EDTA solution, counted with haemocytometer and plated onto 96-well plates (5000 cells/well) and left overnight to form a semi-confluent monolayer. Cell monolayers were treated in quadrates with vehicle (DMSO, 0.1% v/v), test samples or Adriamycin as positive control for an exposure time of 48 h. At the end of exposure, MTT solution in PBS (5 mg/ml) was then added to all well including no cell blank and left to incubate for 90 min. The formation of formazan crystals were visually confirmed using phase contract microscopy. DMSO (100 µl/well) was added to dissolve the formazan crystals with shaking for 10 min after which the absorbance was read at 590 nm against no cell blanks on a FLuo Star Optima microplate reader (BMG technologies, Germany).
(§6) Cell proliferation was calculated comparing the OD values of the DMSO control wells and those of the samples represented as % proliferation to the control. Dose-response experiment was performed on samples producing > or =50% loss of cell proliferation using five serial 2-fold […]
(§7) IC50 values (concentration of sample causing 50% loss of cell proliferation of the vehicle control) were calculated using non-linear regression curve fitting of the dose response plots on GraphPad Prism V.6.0 software. […]

[5] = system: MCF-7 cells; experiment: Annexin V-FITC/PI dual staining apoptosis assay in MCF-7 cells; format: cell-based, human; conditions: at IC50 concentration
Description: To investigate further the effect of the promising compounds 5d, 5e, and 5f on cell apoptosis, Annexin V-FITC/propidium iodide dual staining assay was performed according to the reported method. The morphological markers of apoptosis in the breast cancer MCF-7 cell line were examined before and after treatment with the compounds of interest. Apoptosis assay depends on the translocation of the phosphatidylserine (PS) phospholipid to the cell surface in cells undergoing apoptosis which can be easily detected by staining with the fluorescent conjugate of annexin V followed by flow cytometry analysis. Simultaneously, MCF-7 cells were stained with propidium iodide (PI) which could enter cells with damaged plasma membranes only. This enables the discrimination between early apoptotic cells (positive for PS, but negative for PI) from late apoptotic and necrotic cells (positive for both PS and PI). […]
4. Annexin V-FITC Apoptosis Assay
Phosphatidylserine externalization was assayed using Annexin V-FITC/PI apoptosis detection kit (BD Biosciences, USA) according to the manufacturer’s instructions. Breast cancer MCF-7 cells were cultured to a monolayer then treated with hybrids (5d, 5e and 5f) at their IC50 concentration. Briefly, cells were then harvested via trypsinization, and rinsed twice in PBS followed by binding buffer. Moreover, cells were re-suspended in 100 μL of binding buffer with the addition of 1 μL of FITC-Annexin V followed by an incubation period of 30 min at 4 °C. Cells were then rinsed in binding buffer and resuspended in 150 μL of binding buffer with the addition of 1 μL of DAPI (1 μg/μL in PBS). Cells were then analyzed using the flow cytometer BD FACS Canto II and the results were interpreted with FlowJo7.6.4 software (Tree Star, Ashland, OR,

[6] = system: MCF-10A; experiment: MTT cytotoxicity towards non-tumorigenic breast cells MCF-10A; format: cell-based, human
Excerpt: In order to investigate their selectivity on cancer cells, hybrids 5d, 5e and 5f, endowed with dual growth inhibitory action against MCF-7 and T-47D cells, were assesses for their cytotoxic action towards the non-tumorigenic breast cells (MCF-10A), via the MTT assay. The obtained IC50s and the calculated mean tumour selectivity index (S.I.); IC50 for MCF-10A/IC50 average for (MCF-7 and T-47D) have been presented in Table 5.
as §4, §5
Cell proliferation was calculated comparing the OD values of the DMSO control wells and those of the samples represented as % proliferation to the control. Dose-response experiment was performed on samples producing > or =50% loss of cell proliferation using five serial 2-fold dilutions (50, 25, 12.5, 6.25 and 3.125 µM) of the sample. IC50 values (concentration of sample causing 50% loss of cell proliferation of the vehicle control) were calculated using non-linear regression curve fitting of the dose response plots on GraphPad Prism V.6.0 software. […]

[7] = system: MCF-7; experiment: MTT anti-proliferative assay, MCF-7 breast cancer cells; format: cell-based; conditions: Homo sapiens, MCF7, 48 h exposure, mean ± SD of three separate experiments
Description: as §4, §5, §6, §7

melting point: > 300 °C
IC50 [1]: 0.0401 ± 0.0022 µM
IC50 [3]: 0.0528 ± 0.0029 µM
IC50 [4]: 7.8 ± 0.25 µM
IC50 [7]: 2.27 ± 0.06 µM
Compound: COc1ccc2c(c1)C(=NNC(=O)c1cc3cc(Br)ccc3o1)C(=O)N2 [5f, 5-Bromo-N'-(5-methoxy-2-oxoindolin-3-ylidene)benzofuran-2-carbohydrazide]
%Sub-G1 ([2]; control 1.29): 22.02%
%G2/M ([2]; control 11.3): 37.82%
%S ([2]; control 33.82): 17.88%
%G0-G1 ([2]; control 53.59): 22.28%
Late Apoptosis (Upper Right %) ([5]; control 0.19): 22.16%
Early Apoptosis (Lower Right %) ([5]; control 0.63): 3.94%
Total apoptosis (L.R % + U.R %) ([5]; control 0.82): 26.10%
Necrosis ([5]; upper left quadrant, control 0.49): 2.14%
IC50 ([6]; Homo sapiens, MCF-10A, MTT assay, non-tumorigenic breast cell line): 40 ± 1.42 µM
Mean tumour selectivity index (S.I.) ([6]; IC50 for MCF-10A/IC50 average for (MCF-7 and T-47D)): 7.9
